These results are taken from ChEMBL document CHEMBL5625209, “Rational design and optimization of acylthioureas as novel potent influenza virus non-nucleoside polymerase inhibitors” (Eur J Med Chem, 2023).

Series [1] has as its system Influenza A virus. The series is described as follows: Antiviral activity against Influenza A virus H1N1 (A/Puerto Rico/8/34) infected in MDCK cells assessed as reduction in virus-induced cytopathic effect incubated for 48 hrs by CCK8 assay. Type of series: functional, organism-based. On the technique in general: Cytopathic effects are the visible damage that an infection or toxin causes in cultured cells.

The nature of series [2]: Cytotoxicity against MDCK cells by CCK-8 assay. The format is toxicity, cell-based, Canis lupus familiaris. To be noted: dog.
Series [3] in a line: Selectivity index, ratio of CC50 for MDCK cells to EC50 for antiviral activity against Influenza A virus H1N1 (A/Puerto Rico/8/34) infected in MDCK cells. Type of series: toxicity, cell-based. The following applies: dog, read-out: Ratio CC50/EC50.
The nature of series [4]: Half life in Sprague-Dawley rat at 3 mg/kg, iv measured up to 24 hrs by LC-MS analysis. The format is ADME, organism-based. The following applies: in vivo.
Series [5] is described as follows: Half life in Sprague-Dawley rat at 10 mg/kg, po measured up to 24 hrs by LC-MS analysis. The following applies: in vivo. Type of series: ADME, organism-based.
Series [6] in a line: Tmax in Sprague-Dawley rat at 3 mg/kg, iv measured up to 24 hrs by LC-MS analysis. Type of series: ADME, organism-based. To be noted: in vivo.
Series [7] in a line: Tmax in Sprague-Dawley rat at 10 mg/kg, po measured up to 24 hrs by LC-MS analysis. Type of series: ADME, organism-based. The following applies: in vivo.
A short description of series [8]: Cmax in Sprague-Dawley rat at 3 mg/kg, iv measured up to 24 hrs by LC-MS analysis. Type of series: ADME, organism-based. The following applies: in vivo.
A short description of series [9]: Cmax in Sprague-Dawley rat at 10 mg/kg, po measured up to 24 hrs by LC-MS analysis. The format is ADME, organism-based. The following applies: in vivo.
Series [10] in a line: AUC(0 to infinity) in Sprague-Dawley rat at 10 mg/kg, po measured up to 24 hrs by LC-MS analysis. The format is ADME, organism-based. The following applies: in vivo.
A short description of series [11]: AUC(0 to t) in Sprague-Dawley rat at 3 mg/kg, iv measured up to 24 hrs by LC-MS analysis. The format is ADME, organism-based. The following applies: in vivo.
Series [12] in a line: AUC(0 to t) in Sprague-Dawley rat at 10 mg/kg, po measured up to 24 hrs by LC-MS analysis. To be noted: in vivo. Type of series: ADME, organism-based.
Series [13] can be described thus: AUC(0 to infinity) in Sprague-Dawley rat at 3 mg/kg, iv measured up to 24 hrs by LC-MS analysis. Type of series: ADME, organism-based. To be noted: in vivo.
A short description of series [14]: Oral bioavailability in Sprague-Dawley rat at 10 mg/kg measured up to 24 hrs by LC-MS analysis. Type of series: ADME, organism-based. The following applies: in vivo.
Series [15] relates to Influenza B virus. The series is described as follows: Antiviral activity against influenza B virus B/Yamagata/16/88 infected in MDCK cells. Type of series: functional, organism-based. The following applies: B/Yamagata/16/88, MDCK.
The subject of series [16] is Influenza B virus. The series can be described thus: Antiviral activity against influenza B virus Victoria/2/87 infected in MDCK cells. The format is functional, organism-based. The following applies: Victoria/2/87, MDCK.
A short description of series [17]: Metabolic stability in human plasma measured upto 120 mins by LC-MS/MS analysis. The format is ADME, cell-free. To be noted: 2 h.
Series [18] in a line: Metabolic stability in human plasma after 15 mins by LC-MS/MS analysis. The format is ADME, cell-free. The following applies: 0.25 h, BLD = below limit of detection.
Series [19] can be described thus: Metabolic stability in human plasma assessed as half life measured upto 120 mins by LC-MS/MS analysis. The format is ADME, cell-free.
For series [20], the system named is Influenza A virus. The series can be described thus: Inhibition of Influenza A virus RdRp activity assessed as reduction in Fluc/Rluc ratio at 0.1 to 10 uM. The following applies: dose 0.1-10 µM.
Series [21] deals with Influenza A virus. The series is described as follows: Antiviral activity against Influenza A virus H1N1 (A/Puerto Rico/8/34) infected in MDCK cells assessed as reduction in NP protein level at 1 uM in presence of 1000 uM rNTP by Western blot analysis. Type of series: functional, organism-based.
The subject of series [22] is Influenza A virus. The series can be described thus: Antiviral activity against Influenza A virus H1N1 (A/Puerto Rico/8/34) infected in MDCK cells assessed as reduction in NP viral RNA level at 10 uM treated at 1 hr post infection by qRT-PCR analysis. The format is functional, organism-based.
The test system of series [23] is Influenza A virus. The series can be described thus: Antiviral activity against Influenza A virus H1N1 (A/Puerto Rico/8/34) infected in MDCK cells assessed as reduction in NP protein level at 10 uM treated at 1 hr post infection by Western blot analysis. The format is functional, organism-based. On the technique in general: Immunoblotting shows a protein as a band on a membrane.

Series [24] has as its system Influenza A virus. The series can be described thus: Antiviral activity against Influenza A virus H1N1 (A/Puerto Rico/8/34) infected in MDCK cells assessed as reduction in NP protein level at 10 uM in presence of 125 uM rNTP by Western blot analysis. The format is functional, organism-based.
Series [25] concerns Influenza A virus. The series can be described thus: Antiviral activity against Influenza A virus H1N1 (A/Puerto Rico/8/34) infected in MDCK cells assessed as reduction in NP protein level at 10 uM in presence of rATP by Western blot analysis. The format is functional, organism-based.
The subject of series [26] is Influenza A virus. The series is described as follows: Antiviral activity against Influenza A virus H1N1 (A/Puerto Rico/8/34) infected in MDCK cells assessed as reduction in NP protein level at 10 uM in presence of rGTP by Western blot analysis. Type of series: functional, organism-based.
Series [27] is described as follows: Metabolic stability in mouse liver microsomes assessed as half life preincubated for 5 mins followed by NADPH addition and measured upto 45 mins by LC-MS analysis. Type of series: ADME, Microsome. The following applies: time < 50 min. Background: Liver microsomes are vesicles of endoplasmic reticulum, rich in cytochrome P450 enzymes.
Series [28] is described as follows: Metabolic stability in dog liver microsomes assessed as half life preincubated for 5 mins followed by NADPH addition and measured upto 45 mins by LC-MS analysis. The format is ADME, Canis lupus familiaris, Microsome. The following applies: time < 50 min.
Series [29] can be described thus: Metabolic stability in human liver microsomes assessed as half life preincubated for 5 mins followed by NADPH addition and measured upto 45 mins by LC-MS analysis. Type of series: ADME, Microsome. To be noted: time < 50 min.
The nature of series [30]: Metabolic stability in mouse liver microsomes assessed as intrinsic clearance preincubated for 5 mins followed by NADPH addition and measured upto 45 mins by LC-MS analysis. The format is ADME, Microsome. To be noted: time < 50 min, read-out: CLH.
The nature of series [31]: Metabolic stability in dog liver microsomes assessed as intrinsic clearance preincubated for 5 mins followed by NADPH addition and measured upto 45 mins by LC-MS analysis. To be noted: time < 50 min, read-out: CLH. The format is ADME, Canis lupus familiaris, Microsome.
Series [32] in a line: Metabolic stability in human liver microsomes assessed as intrinsic clearance preincubated for 5 mins followed by NADPH addition and measured upto 45 mins by LC-MS analysis. The format is ADME, Microsome. The following applies: time < 50 min, read-out: CLH.
Series [33] can be described thus: Metabolic stability in mouse liver microsomes assessed as hepatic clearance preincubated for 5 mins followed by NADPH addition and measured upto 45 mins by LC-MS analysis. The format is ADME, Microsome. The following applies: time < 50 min.
Series [34] is described as follows: Metabolic stability in dog liver microsomes assessed as hepatic clearance preincubated for 5 mins followed by NADPH addition and measured upto 45 mins by LC-MS analysis. Type of series: ADME, Canis lupus familiaris, Microsome. To be noted: time < 50 min.
Series [35] in a line: Metabolic stability in human liver microsomes assessed as hepatic clearance preincubated for 5 mins followed by NADPH addition and measured upto 45 mins by LC-MS analysis. The following applies: time < 50 min. The format is ADME, Microsome.
The nature of series [36]: Metabolic stability in mouse liver microsomes assessed as hepatic extraction ratio preincubated for 5 mins followed by NADPH addition and measured upto 45 mins by LC-MS analysis. To be noted: time < 50 min. Type of series: ADME, Microsome.
The nature of series [37]: Metabolic stability in dog liver microsomes assessed as hepatic extraction ratio preincubated for 5 mins followed by NADPH addition and measured upto 45 mins by LC-MS analysis. Type of series: ADME, Canis lupus familiaris, Microsome. To be noted: time < 50 min.
A short description of series [38]: Metabolic stability in human liver microsomes assessed as hepatic extraction ratio preincubated for 5 mins followed by NADPH addition and measured upto 45 mins by LC-MS analysis. Type of series: ADME, Microsome. To be noted: time < 50 min.
Series [39] in a line: Clearance in Sprague-Dawley rat at 3 mg/kg, iv measured up to 24 hrs by LC-MS analysis. Type of series: ADME, organism-based. The following applies: in vivo.

Calls of active or inactive are those of the source.

As to `CCC(=O)Nc1ccc(NC(=S)NC(=O)c2ccc(C(C)(C)C)cc2)cc1`, the EC50 (usually the concentration giving half of the maximal effect) was 0.016 µM in the series with Influenza A virus [1], 2.5 µM in the series with Influenza B virus [15] and 3.1 µM in the series with Influenza B virus [16]. In addition, in series [2], the CC50 (in general, the concentration at which the toxic effect on the cells reaches its halfway point) was 86.9 µM. The selectivity ratio in series [3] is 5430. The half-life (commonly the time needed for the level to fall by half in the phase considered) in series [4] is 51 min; in [5], 113 min. The figures for the Tmax in series [6] and in [7] were 4.8 min and 25.2 min, respectively. Also, the results for the Cmax in series [8] and in series [9] were 3650 ng/mL and 13 ng/mL, respectively. In addition, the AUC(0-inf) (in general, total exposure, with the tail of the curve extrapolated) in series [10] worked out at 36 ng·h/mL. Besides, the AUC(0-t) (as a rule, exposure summed from dosing to a finite time, without extrapolation to infinity) at 24 h worked out at 1240 ng·h/mL in [11] and 34 ng·h/mL in series [12]. Besides, the AUC (in general, the area under the concentration-time curve, a measure of exposure) in series [13] (iv, 3 mg/kg, 24 h) was 1236 ng·h/mL. In series [14], the bioavailability (commonly dose-corrected exposure relative to a reference, in per cent) was 0.83%.
Turning to `CCN(CC)CCOC(=O)c1ccc(N)cc1` [PROCAINE], the Stability entry in series [17] is reported as “Unstable”; in series [18] it was “Bld”. Further, the half-life in series [19] was determined as 1.12 min.
Turning to `CC(=O)N[C@H]1[C@H]([C@H](O)[C@H](O)CO)OC(C(=O)O)=C[C@@H]1NC(=N)N` [ZANAMIVIR], the EC50 in the series on Influenza A virus [1] came out at 0.065 µM. The inhibition result with Influenza A virus [20] is “inactive”. For the same molecule, the result with Influenza A virus [21] was Active.
For the molecule `NC12CC3CC(CC(C3)C1)C2`, the outcome in the series with Influenza A virus [22] and in the series on Influenza A virus [23] was Active.
As for `NC(=O)c1ncn([C@@H]2O[C@H](CO)[C@@H](O)[C@H]2O)n1`, the outcome in the series on Influenza A virus [24] was Active. Besides, the result in the series on Influenza A virus [25] and with Influenza A virus [26] was inactive.
Take `O=C(c1ccc(F)cc1)C1CCN(CCn2c(=O)[nH]c3ccccc3c2=O)CC1` [KETANSERIN]: the results for the half-life in series [27], in series [28] and in [29] were 18.6 min, 48.5 min and 37.2 min, respectively. Also, the CLint scaled was determined as 293 mL/min/kg in [30], 71.2 mL/min/kg in series [31] and 46.7 mL/min/kg in series [32]. Moreover, the CLhep predicted in series [33] is 68.8 mL/min/kg; in [34], 21.6 mL/min/kg; in series [35], 14.3 mL/min/kg. Further, the results for the hepatic extraction ratio at 0.75 h in series [36], in series [37] and in series [38] were 76.5%, 69.7% and 69.3%, respectively.
Consider `CC(C)(C)c1ccc(C(=O)NC(=S)Nc2ccc(O)cc2)cc1`, for which the EC50 in the series on Influenza A virus [1] is 0.02 µM; in the series with Influenza B virus [15] it was 4 µM; in the series on Influenza B virus [16], 5.2 µM. Also, the CC50 in [2] came to 77.7 µM. The selectivity ratio in series [3] is 3880. The same molecule had a half-life in [4] of 30.6 min. In addition, the Tmax – broadly, the time from dosing to the highest level – in [6] was 4.8 min; in series [7] it was 94.8 min. Besides, the Cmax (as a rule, the peak of the concentration-time curve) in series [8] is 2520 ng/mL; in series [9] it was 12.8 ng/mL. Also, the AUC(0-t) at 24 h in series [11] stood at 1100 ng·h/mL; in series [12], 44.3 ng·h/mL. Also, the AUC(0-inf) in series [13] (Sprague-Dawley) was 1100 ng·h/mL. Also, the clearance (commonly the rate of elimination divided by the concentration) in [39] stood at 46.4 mL/min/kg. In addition, in series [14], the bioavailability amounted to 1.21%.
